Assay results reported in a melting point compilation (Tetko et al.; mined from patent text by program, amines drawn as free bases though some values may be those of a salt).

With `O=C(NNS(=O)(=O)c1ccccc1)c1ccc2c(c1)OCO2` the melting point was 156 to 158 °C.
`ClCc1ccc(Cl)nc1Cl` showed a melting point of 115 to 130 °C.
For `Cn1c(COc2ccc(CC3SC(=O)N(C(c4ccccc4)(c4ccccc4)c4ccccc4)C3=O)cc2)cc2ccccc21` (stereo unspecified), the melting point was 134 to 136 °C.
`Cc1ccccc1C(=O)c1cc2c(c(Br)c1O)CCCC2` showed a melting point of 151 to 153 °C.
`CCCc1c(OCc2cccn3c(=O)c(C#N)cnc23)ccc(C(C)=O)c1O` showed a melting point of 233 to 234 °C.
Work on `Nc1ccc(-c2ccccc2)cc1[N+](=O)[O-]` yielded a melting point of 163 to 165 °C.
`CCCCCCC(CCCCCC)N1C(=O)c2ccc3c4cccc5c(NC(C)=O)ccc(c6ccc(c2c36)C1=O)c54` showed a melting point of over 230 °C.
In the case of `COC(=O)CCCCCCCCCCCO`, the melting point is reported as 33.5 to 35 °C.
In the case of `CC(=O)c1ccc(OCCCCl)cc1O`, the melting point is reported as 74 °C.
Molecule `N#CC1CCn2cccc21` (stereo unspecified) has a melting point of 44 to 45 °C.
For `Cn1c(=O)c2c(nc(Cl)n2Cc2ccc(F)cc2)n(C)c1=O`, the melting point was 183 to 184 °C.
Work on `CCOCc1nc2c(N)nc3cc(OCCNC(=O)OC(C)(C)C)ccc3c2n1CC1COC(C)(C)O1` (stereo unspecified) yielded a melting point of 82 to 84 °C.
Work on `Cc1cccc(NC(=O)c2cccc(C(F)(F)F)c2)c1C(=O)O` yielded a melting point of 198 to 204 °C.
In the case of `CCCC(=O)Nc1c(C(=O)c2cccc(Cl)c2)[nH]c2cc(Cl)ccc12`, the melting point is reported as 157 to 158 °C.
In the case of `O=c1[nH]c2cc([N+](=O)[O-])ccc2cc1P(=O)(O)O`, the melting point is reported as over 300 °C.
`COC(=O)CCCc1cc2cc(Cl)ccc2n1S(=O)(=O)c1ccc2c(c1)CCO2` showed a melting point of 132 to 137 °C.
For `Cc1cc2c(cc1Br)C(O)CC(C)(C)O2` (stereo unspecified), the melting point was 92 to 93 °C.
`O=C(O)c1cc2c(F)c(F)c(F)c(F)c2s1` gave a melting point of 200 °C.
Work on `C[C@@H](n1cnc2cc(N)c(F)cc2c1=O)[C@](O)(Cn1cncn1)c1ccc(F)cc1F` yielded a melting point of 124 to 125 °C.
For `CCC(=NOCc1cccs1)c1cc(Cl)ccc1NS(=O)(=O)C(F)(F)F`, the melting point was 53 to 54 °C.
`CCOC(=O)C=Cc1c(-c2ccccc2)nn2ccccc12` gave a melting point of 54 to 55 °C.
`COc1cc(C#N)ccc1C(=O)Nc1cc(Cl)c(Cl)cc1N` gave a melting point of over 250 °C.
In the case of `Nc1ncc(Cl)c(CN2CCCC2)c1Cl`, the melting point is reported as 98 to 101 °C.
With `CCn1c(=O)c2c(nc(/C=C/c3ccc4c(c3)OCCO4)n2C)n(CC)c1=O` the melting point was 233 to 234 °C.
Work on `CSc1nc(-c2cc(N)ccc2C)c2c(n1)N(c1c(F)cccc1F)C(=O)NC2` yielded a melting point of 122 to 125 °C.
`C=C1CC2C(CCC3(C)C2CCC3(OC(C)=O)C(C)=O)C2(C)C1=CC(=O)CC2CCl` (stereo unspecified) gave a melting point of 190 to 192 °C.
Work on `CCCc1ccc(NC(=O)c2ccccc2C(c2ccc(O)cc2)c2ccc(O)cc2)cc1` yielded a melting point of 218 to 219 °C.
Molecule `Cc1cc2c(s1)CNCC2O` (stereo unspecified) has a melting point of 120 °C.
Molecule `Nc1sc2c(c1C(=O)c1ccc3c(c1)Cc1ccccc1-3)CCN(Cc1ccccc1)C2` has a melting point of 197 to 200 °C.
With `COc1ccc(C(=O)Nc2ccc(N3CCC(NC[C@H](O)COc4cccc5[nH]c6ccccc6c45)CC3)cc2)cc1OC` the melting point was 183 to 191 °C.
`Cn1ncnc1COc1nn2c(-c3ccccc3F)nnc2cc1-c1cccs1` gave a melting point of 189 to 190 °C.
For `CCC(CC)Nc1cc(C)nc2c1nc(C)n2-c1c(C)cc(C)cc1C`, the melting point was 101 to 103 °C.
With `CC(C)(C)NC(=O)Nc1nc2nc(N)ncc2cc1-c1cccc(Cl)c1Cl` the melting point was 356 to 358 °C.
Molecule `O=C1c2ccc(N3CCCCC3)cc2C(=O)c2cc3ccccc3cc21` has a melting point of 230 to 233 °C.
In the case of `CC(C)c1ccc2ncn(/C=C/C(=O)NCCNCc3cccnc3)c(=O)c2c1`, the melting point is reported as 121 to 124 °C.
`O=C1CNC(c2cc(Br)cc(-c3ccsc3)c2)=NN1CC(F)(F)F` showed a melting point of 167 to 169 °C.
Work on `O=[N+]([O-])c1ccc(CS(=O)(=O)NCCc2ccccc2)cc1` yielded a melting point of 101 to 103 °C.
Work on `O=C1CNc2cc(F)ccc2N1` yielded a melting point of 176 to 178 °C.
`NC1CCN(c2c(F)c(F)c3c(=O)c(C(=O)O)cn(C4CC4)c3c2F)C1` (stereo unspecified) showed a melting point of 290 to 292 °C.
In the case of `N#Cc1ccc(-c2ccc(-c3ccc(Br)o3)o2)nc1`, the melting point is reported as 143 to 145 °C.
`N#Cc1cccc(Nc2nc(N)c(C(=O)c3ccccc3C#N)s2)c1` gave a melting point of 235 to 236 °C.
Work on `CC1(C)CC(=O)C2=C(C1)NC1=C(C(=O)CC(C)(C)C1)C2c1cccc(Oc2cnccn2)c1` yielded a melting point of 204 to 207 °C.
For `C[C@@H]1CO[C@]2(CC[C@@H](OCc3ccccc3)C2)N1C(=O)c1ccccc1`, the melting point was 85 to 86 °C.
With `CCN(CC)C(=O)Oc1c2c(ccc3cc(F)ccc32)nn1-c1ccc(F)cc1` the melting point was 159 to 160 °C.
In the case of `CCOC(=O)CCn1c(=O)c2ccccc2n(CCCCl)c1=O`, the melting point is reported as 80 to 81 °C.
Work on `CC(C)Nc1cccnc1N1CCN(C(=O)c2ccc(C(=O)N3CCNCC3)cc2)CC1` yielded a melting point of 175 to 176 °C.
Work on `OCC1CCCn2c(cc3ccccc32)C1` (stereo unspecified) yielded a melting point of 109 to 111 °C.
For `COc1ccc(S(=O)(=O)Nc2ccccc2Nc2ccc(Cl)cc2)cc1`, the melting point was 127 to 128 °C.
With `Cc1nccc2[nH]c(=O)c(N)cc12` the melting point was 283 to 285 °C.
With `O=C(CCN1CCN(c2ncc(F)cn2)CC1)Cc1ccc(F)c2ccccc12` the melting point was 119 to 120 °C.
Molecule `CCOC(=O)C1=C(C(F)(F)F)NC2=C(C(=O)CCC2)C1c1nccn1C` (stereo unspecified) has a melting point of 197 to 198 °C.
